Assay: Human HepG2 cell viability assay in 384 well format
Assay type: toxicity, cell-based
Parameters: dose 125 nL, time 70.5 hour; concentration not given beside the values
Details: HepG2 cells, read-out: Inhibition

| Compound | cytotoxicity at 70.5 h [%] |
| --- | --- |
| CNC(=O)c1ccc(C(=O)N2CCC(Nc3cccnn3)CC2)cn1 | -4.73 |
| CC(=O)Nc1nc(CN2CCOC(Cn3nc(C)cc3C)C2)cs1 (configuration not stated) | 10.6 |
| Cc1cnn(CCNCC(=O)NCC2(c3ccccc3)CC2)c1 | 31.1 |
| CCc1nc(C2CCCN(C(=O)c3ccc(Cl)cc3)C2)no1 (configuration not stated) | 5.79 |
| O=C(NCCCn1ccnc1)NCC(c1ccco1)N1CCCCC1 (configuration not stated) | 4.46 |
| Cc1cc(C)n(CC2CCCN2C(=O)c2ccnc(N(C)C)c2)n1 (configuration not stated) | 10.6 |
| O=C(c1cc(F)ccc1F)C1CCN(C(=O)c2ccco2)CC1 | -3.7 |
| CC(C)c1nc(C2CCCN(C(=O)c3ccc4[nH]nnc4c3)C2)no1 (configuration not stated) | -4 |
| c1ccc(CCCN2CCOC(Cn3cccn3)C2)cc1 (configuration not stated) | -6.46 |
| O=C(NCCCNc1ccc(C(F)(F)F)cn1)c1ccc(F)cc1Br | -6.12 |
| CN1CC(C(=O)NCc2cccnc2-n2cccn2)CC1=O (configuration not stated) | -6.03 |
| CCOc1ccc(OCC(O)CN2CCN(S(C)(=O)=O)CC2)cc1 (configuration not stated) | 0.695 |
| c1ccc2oc(CN3CCOC(Cn4cccn4)C3)nc2c1 (configuration not stated) | -0.847 |
| CCc1nc(C2CCCN(C(=O)c3cccc(C(N)=O)c3)C2)no1 (configuration not stated) | 1.02 |
| Cc1ccc(CNC(=O)Cc2c(C)nc3c(c2C)c(=O)[nH]n3C)cc1 | 4.93 |
| O=C(NCCc1ccn(-c2ccccc2)n1)N1CCCC(CO)C1 (configuration not stated) | 1.65 |
| O=C(NCCc1ccn(-c2ccccc2)n1)N1CCSCC1 | 22.7 |
| Cc1cnn(CC2CCCN2C(=O)c2csc(-c3nnc[nH]3)n2)c1 (configuration not stated) | -5 |
| CN(C)c1cc(C(=O)N2CCCCC2Cn2cccn2)ccn1 (configuration not stated) | -1.9 |
| CC(=O)Nc1nc(C(=O)N2CCCCC2Cn2cc(C)cn2)cs1 (configuration not stated) | 5.83 |
| Cc1cnn(CC2CCCCN2C(=O)c2ccc3c(c2)COC3)c1 (configuration not stated) | 4.39 |
| CCc1ccc(OCC(O)CN2CCN(CC)CC2)cc1 (configuration not stated) | 20.5 |
| CCN(Cc1ccc2c(c1)OCO2)Cc1nc2c(cnn2C)c(=O)[nH]1 | 7.27 |
| c1cnnc(N2CCCC2CNCc2noc(C3CC3)n2)c1 (configuration not stated) | 27.1 |
| CCc1ccsc1C(=O)N1CCCN(Cc2cscn2)CC1 | 3.8 |
| CCc1nc(CNCC2CCCN2c2cccnn2)no1 (configuration not stated) | -4.56 |

| Compound | cytotoxicity at 70.5 h [%] |
| --- | --- |
| COc1ccnc(N2CCCN(C(=O)Cc3ccc(C)s3)CC2)n1 | 22.9 |
| Cc1ccc(CN(CC(=O)N2CCOC(C)C2)C2CC2)cc1 (configuration not stated) | -6.74 |
| Cc1ccsc1C(=O)N1CCN(Cc2cscn2)CC1 | -3.03 |
| CC1CN(C(=O)CN(Cc2ccco2)Cc2cccs2)CCO1 (configuration not stated) | 3 |
| CC1CN(C(=O)CN(Cc2ccccc2)C2CC2)CCO1 (configuration not stated) | -9.67 |
| Cc1cc(CN2Cc3ccccc3CC2c2nnc(C)o2)no1 (configuration not stated) | 1.64 |
| CS(=O)(=O)NC1CCCN(C(=O)Nc2cccnc2)C1 (configuration not stated) | 25.1 |
| CS(=O)(=O)NC1CCCN(C(=O)c2cccnc2)C1 (configuration not stated) | -8.57 |
| CC(C)C(CNC(=O)Nc1cn[nH]c1)N1CCOCC1 (configuration not stated) | -5.6 |
| CCc1nnc(C2Cc3ccccc3CN2Cc2nc(C)no2)o1 (configuration not stated) | -3.78 |
| CCn1cnnc1CNC(=O)N1CCCCCC1 | -2.16 |
| CN(C(=O)c1ccc(Cl)cc1)C1CCN(c2ccccn2)CC1 | 2.33 |
| Cc1nc(C)n(CC2CCCN(CCC(=O)N3CCOCC3)C2)n1 (configuration not stated) | -4.61 |
| CC1CN(C(=O)CN(Cc2ccccc2Cl)C2CCCC2)CCO1 (configuration not stated) | 6.53 |
| CCn1c(C)nnc1CN(C)C1CCN(CCCOC)C1 (configuration not stated) | 3.25 |
| COc1ccnc(N2CCN(C(=O)Cc3ccc(C)s3)CC2)n1 | -5.58 |
| CN(C)c1cc(CNC(=O)c2cn(-c3ccc(F)cc3)nn2)ccn1 | -8.15 |
| CN(C(=O)c1ccccc1Cl)C1CCN(c2ccccn2)CC1 | -3.26 |
| CN(C(=O)c1cccc2[nH]ncc12)C1CCN(c2ccccn2)CC1 | 31.6 |
| COc1ccnc(N2CCN(C(=O)NCc3ccc(C)s3)CC2)n1 | 1.2 |
| Cc1ccsc1CNC(=O)Cc1c(C)nc2c(c1C)c(=O)[nH]n2C | -12.2 |
| Cc1cn2c(n1)CCC(NC(=O)c1nc(C)ncc1Cl)C2 (configuration not stated) | -8.31 |
| O=C(Cn1cccn1)NCC1(c2ccccc2)CC1 | 24.2 |
| CC1CN(C(=O)CN(Cc2ccco2)C2CC2)CCO1 (configuration not stated) | -10.6 |
| CC(C)COC(C)C(=O)NCc1cc(F)cc(F)c1 (configuration not stated) | -13.3 |
| Cc1noc(C)c1CNCC1CCCN1c1cccnn1 (configuration not stated) | 22.6 |

| Compound | cytotoxicity at 70.5 h [%] |
| --- | --- |
| O=C(CNCCn1cccn1)NCC1(c2ccccc2)CC1 | -4.79 |
| Cc1cccc(C(=O)NCc2ccnc(N(C)C)c2)n1 | 0.0987 |
| Cc1nc(C)n(CC2CCCN(CCNC(=O)OC(C)(C)C)C2)n1 (configuration not stated) | -0.801 |
| CCc1ccc(C(=O)N2CCCC(c3noc(CC)n3)C2)o1 (configuration not stated) | -2.81 |
| CCc1nc(CN2CCCC(NCc3cc(C)no3)C2)no1 (configuration not stated) | -8.45 |
| Cc1noc(CN2Cc3ccccc3CC2c2nnc(C)o2)n1 (configuration not stated) | 4.3 |
| CC1CCN(C(=O)CN(Cc2ccco2)C2CC2)CC1 | -9.01 |
| CCc1n[nH]c(C2CN(Cc3nnc(C4CC4)n3C)CCO2)n1 (configuration not stated) | 27.9 |
| Cc1nc2ccccc2nc1CN1CCCC1Cn1cncn1 (configuration not stated) | 19.7 |
| CCn1cc(CN2CCCN(C(=O)c3ccn(C)c(=O)c3)CC2)cn1 | 20.6 |
| Cc1nc(CN2CCCN(CC(=O)Nc3cccnc3)CC2)no1 | 7.78 |
| Cc1nc(C)n(C2CCCN(C(=O)c3ccccc3C)C2)n1 (configuration not stated) | -7.9 |
| CNC(=O)c1ccc(CN2CCC(N(C)Cc3noc(C)n3)C2)cc1 (configuration not stated) | -0.459 |
| O=C(COCc1ccccc1Cl)N1CCCC(n2cccn2)C1 (configuration not stated) | 3.17 |
| Cn1ncc2c1CCCC2NCc1ccc(Cl)s1 (configuration not stated) | 4.18 |
| Cc1ccc(OCCCNC(=O)NC(C)c2nncn2C)cc1 (configuration not stated) | -3.66 |
| CNc1cc2c(nn1)CCN(C(=O)c1ccoc1)C2 | -6.62 |
| O=C(c1ccc(Cl)o1)N1CCCN(Cc2cscn2)CC1 | -5.01 |
| Cc1cc(C)n(C2CCCN(C(=O)c3ccc(NC4CC4)nc3)C2)n1 (configuration not stated) | -0.521 |
| CC(C)c1nnc2n1CCN(C(=O)c1ccc(OCC(N)=O)cc1)C2 | -4.33 |
| OCC1CCCN1c1cc(N2CCN(c3ccccn3)CC2)ncn1 (configuration not stated) | -9.58 |
| Cc1nc(CN(C)C2CCN(Cc3ccc4c(c3)OCCO4)C2)no1 (configuration not stated) | -2.2 |
| Cn1c(CN2CCOC(c3nc(C(C)(C)C)n[nH]3)C2)nnc1C1CC1 (configuration not stated) | 26.5 |
| Cc1cc(NC(=O)CN2CCOC(Cn3cccn3)C2)n(C)n1 (configuration not stated) | 8.66 |
| c1cnnc(N2CCCC(NCc3ccc(-n4cccn4)cc3)C2)c1 (configuration not stated) | -4.64 |
| COCCOc1ccc(NC(=O)N2CCCC2c2cc(C)no2)cn1 (configuration not stated) | -7.2 |

| Compound | cytotoxicity at 70.5 h [%] |
| --- | --- |
| Cc1nc(CN2CCCC(N(C)Cc3nnsc3Cl)C2)no1 (configuration not stated) | -1.91 |
| OCC1CCCN1c1cc(N2CCc3ccccc3C2)ncn1 (configuration not stated) | 31.1 |
| COCCOc1ccc(NC(=O)N2CCCC2c2ccncc2)cn1 (configuration not stated) | -11.8 |
| Cc1cnn(CC2CCCN2Cc2nc3ccccc3nc2C)c1 (configuration not stated) | -7.74 |
| Cc1cc(C)n(C2CCCN(C(=O)c3cc(C4CC4)on3)C2)n1 (configuration not stated) | 0.784 |
| CC(C)c1nc2n(n1)CC(NCc1ncc(-c3ccccc3)o1)CC2 (configuration not stated) | -6.07 |
| c1ccc(-c2cnc(CNCC3CCCN3c3cccnn3)o2)cc1 (configuration not stated) | -5.15 |
| Cc1nc2ccccc2nc1CN(C)CC1CCCN1c1cccnn1 (configuration not stated) | 3.52 |
| Cc1noc(C)c1CN(C)CC1CCCN1c1cccnn1 (configuration not stated) | -7.19 |
| Cn1cnnc1C1CCCN(C(=O)NCCNc2ccccn2)C1 (configuration not stated) | -15.9 |
| COc1ccc(C)cc1CSCCn1nc2ccccn2c1=O | -11.5 |
| CC(=O)Nc1nc(C(=O)Nc2ccc(F)cc2)cs1 | -4.84 |
| CCN(Cc1ccc2c(c1)OCCO2)C(=O)NCc1cc[nH]n1 | -20.9 |
| CN(Cc1ccsc1)C(=O)CS(=O)(=O)Cc1ccc(Cl)c(Cl)c1 | -9.28 |
| CC(O)CN(CC(=O)NC(=O)NCC(F)(F)F)c1ccccc1 (configuration not stated) | -11.1 |
| NS(=O)(=O)Cc1ccc(CNC(=O)NCC2CCOC2)cc1 (configuration not stated) | -15.3 |
| COc1ccccc1CC1CCCN(CC(N)=O)C1 (configuration not stated) | -2.63 |
| O=c1n(CCSCc2ccccc2F)nc2ccccn12 | -11.3 |
| Cc1oc(-c2ccco2)nc1CC(=O)N1CCN(CC(C)(C)O)CC1 | -17.8 |
| O=C(Nc1cc(F)ccc1OCC1CCCO1)c1ccc(O)nc1 (configuration not stated) | -6.69 |
| Cc1nnc(N2CCC(CS(N)(=O)=O)CC2)c(C#N)c1C | -9.82 |
| CCn1nc(C)cc1C(=O)Nc1cc(F)ccc1OCC1CCCO1 (configuration not stated) | -16.3 |
| CC(C)c1nn(C)c(Cl)c1CNCC(O)c1cccc(F)c1 (configuration not stated) | -10.3 |
| Cn1ncc2c1CCCC2NCc1cc(Br)cs1 (configuration not stated) | -0.587 |

— ChEMBL document CHEMBL3507680, “University of Dundee, Gates Library screen for HepG2 cell viability”
